Positions count from the first letter of the chain named. Where two headings read alike, the source gives them in different places. Marks after values point to notes of the source that are not given here. {3T} = T cap written 3T / [3'T]; {NH2} = amine group; m = 2'-O-methyl; r = 2'-OH (RNA); f = 2'-fluoro
Tests used:
[1] = Pharmacokinetics via subconjunctival administration; format: in vivo, mice
Method: A pharmacokinetic study was performed to determine the pharmacokinetics of ARC81, ARC117 and ARC119, TGFβ2 aptamers having the sequences of SEQ ID NOs:4, 9 and 11, respectively), via subconjunctival administration in mice. These aptamers were formulated at a concentration of 10 mg/ml. Samples were collected at 0, 0.5, 1, 2, 6, 12, 24, 48 and 96 hours post-administration. FIGS. 21A, 21B and 21C show the aqueous humor and/or plasma concentration of each aptamer (in nM) through 50 hours post dose via subconjunctival administration.

[2] = system: TGFβ2 in rabbit aqueous humor; assay: Aqueous humor challenge assay (MLEC proliferation); format: cell-based
Method: MLEC Assay. The mink lung epithelial cell proliferation assay is performed over two days. […]
(§1) On day 2:1) mix 20 μl BrdU with 2 ml 0.5% FBS media; 2) add 10 μl of BrdU mixture/well; 3) incubate cells at 37° C. in 5% CO2 for 3 hrs; 4) remove media and blot plates dry on paper towels; 5) add 200 μl/well FixDenat solution and incubate for 30 min at room temperature (RT); 6) remove FixDenat solution and blot plates dry on paper towels; 7) add 100 μl /well anti-BrdU POD solution and incubate for 90 min at RT; 8) remove anti-BrdU POD solution and blot plates dry on paper towels; 9) wash plates 3× with […] washing solution with 5 min RT incubations and blot plates dry on paper towels; 10) add 100 μl /well substrate solution and incubate for 3 min at RT in dark; and 11) read plates using PSP Luciferace 1 program on TopCount (Packard Bioscience Co., Downers Grove, Ill.).
MLECs were plated at 2,000 cells per well and incubated at 37° C. for 4 hours. […] Cell proliferation was measured using BrdU incorporation. […]

[3] = target: T1, TGFβ2 (Homo sapiens, UniProt P61812); assay: Nitrocellulose-filter partitioning binding of 32P-labeled aptamer to TGFβ-2 protein; design: A synthetic polynucleotide encoding full length human TGFβ2 mature protein was cloned into pRSET E. coli expression vector; made in house
T1 sequence (P61812 303-414 limits assumed): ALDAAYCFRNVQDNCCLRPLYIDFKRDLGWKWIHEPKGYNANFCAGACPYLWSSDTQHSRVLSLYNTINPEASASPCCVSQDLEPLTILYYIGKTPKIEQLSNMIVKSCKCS
Method: (§2) Dissociation constants for the binding of aptamers to purified human or rodent TGFβ-2 protein were determined by nitrocellulose-filter partitioning using ^32P-labeled RNA. In vitro transcribed RNA was treated with calf-intestinal alkaline phophatase (New England Biolabs) to remove 5′-triphosphates, then radio-labeled by incubation with γ-^32P-ATP and T4 polynucleotide kinase (New England Biolabs). Unincorporated label was removed by gel-filtration, and the RNAs were further purified by polyacrylamide gel electrophoresis (PAGE). Purified ^32P-labeled aptamer in water was refolded just prior to use by heating for 3 min at 95° C., followed by a 10 minute room-temperature incubation in binding buffer (50 mM Hepes, pH 7.4, 1 mM MgCl2, 1 mM CaCl2, 3 mM KCl, 140 mM NaCl, 0.1 mg/ml BSA, 0.01 mg/ml tRNA). The binding reactions (100 μL) were initiated by the addition of aptamer (≦0.1 nM) to excess TGFβ-2 protein (0.2-100 nM), followed by 10-30 minute equilibration at room temperature.
Nitrocellulose-filter partitioning was performed on Minifold® I, 96-well Dot-Blot manifolds (Schleicher & Schuell). Protein-bound aptamer and residual free aptamer were captured, respectively, on pre-wetted Protran nitrocellulose (Schleicher & Schuell) and Hybond-P polyvinylidene difluoride (Amersham Biosciences) filters by vacuum aspiration, and quantified by PhosphorImager (Amersham Biosciences). The proportion of protein-bound aptamer at each TGFβ-2 concentration was plotted as the ratio of counts-per-minute on the Protran nitrocellulose filter (CPMNC) to the sum of CPM on the Protran and Hybond-P filters (CPMtotal). Estimates of dissociation constants (KD) were obtained from a fit of the concentration of TGFβ-2 (i.e., [TGFβ-2])-dependent data to a standard binding isotherm: CPMNC/CPMtotal=Cmax/(1+KD/[TGFβ2]total), where Cmax equals the maximum observed value of CPMNC/CPMtotal at saturating [TGFβ-2], likely reflecting the proportion of properly-folded aptamer that is competent to recognize TGFβ-2.

[4] = target: T2, human TGFβ2 (Homo sapiens, UniProt P61812); assay: MLEC proliferation assay (reversal of TGFβ2-mediated inhibition, BrdU); format: cell-based; conditions: for inhibition of the antiproliferative effects of TGFβ2: 50 pg/ml of TGFβ2, BrdU incorporation
T2 construct: two forms of mature TGFβ2 were generated, native and N-terminal his-tagged versions, in E. coli; made in house; host or cells: E. coli; added as soluble protein to MLEC
T2 sequence (P61812 303-414): T1 sequence (P61812 303-414 limits assumed)
Method: (§3) MLECs were plated at 2,000 cells per well and incubated at 37° C. for 4 hours. Aptamer and TGFβ2 were added at the indicated concentrations for 16 hours at 37° C. Cell proliferation was measured using BrdU incorporation. BrdU assay was performed as recommended by the manufacturer (Roche Diagnostics).
(§4) MLEC Assay. The mink lung epithelial cell proliferation assay is performed over two days. On day 1:1) media is aspirated off from Mink Lung Epithelial Cells (MLEC); 2) the MLEC are washed with 10 ml 1×PBS; 3) 3 ml Trypsin is added and Trypsinize for 3 min at 37° C.; 4) quench with 10 ml 0.5% FBS media; 5) spin at 1000 rpm for 3.30 min; 6) aspirate off supernatant; 7) resuspend pellet in 10 ml 0.5% FBS media; 8) Count 10 μl cell suspension; 9) adjust cell density to 80,000 cells/ml; 10) add 50 μl of cells/well to black bottomed 96-well plates (4000 cells/well); pipet up and down during plating process to avoid settling of cells and uneven plating; 11) incubate cells at 37° C. in 5% CO2 for 4 hrs to allow adherence of cells; 12) add 25 μl of aptamer (or media, or other test reagent, such as for example, an antibody), preferably the outer wells are not used for treated cells; 13) add 25 μl of TGFβ2 (typically 25 pg/ml); and 14) incubate cells at 37° C. in 5% CO2 overnight.
as §1

[5] = system: retinal pigmented epithelial (RPE) cells; assay: RPE cell migration with PDGF; format: cell-based; conditions: 100 ng/ml PDGF
Text: The graphs presented in FIG. 15E and 15F show the increasing effect of PDGF concentration on RPE cell migration.

[6] = target: T3, mouse (NTK) TGFβ2 (Homo sapiens, UniProt P61812, K396N/R362K/S361T); assay: Nitrocellulose-filter binding to mouse TGFβ2; conditions: FIG. 6C; read-out: binding affinity, mouse (NTK) TGFβ2
T3 construct: A synthetic polynucleotide encoding full length human TGFβ2 mature protein was cloned into pRSET E. coli expression vector; made in house
T3 sequence (P61812 303-414 S361T/R362K/K396N): T1 sequence (P61812 303-414 limits assumed) with S59T, R60K, K94N
Method: as §2
(§5) Nitrocellulose-filter partitioning was performed on Minifold® I, 96-well Dot-Blot manifolds (Schleicher & Schuell). Protein-bound aptamer and residual free aptamer were captured, respectively, on pre-wetted Protran nitrocellulose (Schleicher & Schuell) and Hybond-P polyvinylidene difluoride (Amersham Biosciences) filters by vacuum aspiration, and quantified by PhosphorImager (Amersham Biosciences). […]

[7] = system: N-terminal His tagged human TGFβ2; assay: Nitrocellulose-filter binding to His-tagged TGFβ2; conditions: FIG. 6C; read-out: binding affinity, N-terminal His tagged human TGFβ2
Method: A synthetic polynucleotide encoding full length human TGFβ2 mature protein was cloned into pRSET E. coli expression vector and transformed into BL21 (pLys) strain. The transformed cells were grown under conditions leading to TGFβ2 protein being expressed at high level and forming inclusion bodies. The inclusion bodies were purified and solubilized. The TGFβ2 was refolded and purified by S75 size exclusion chromatography (FIG. 4A). A His-tagged TGFβ2 was also generated by adding His6 plus 30 extra amino acids at the N terminus of TGFβ2. Mutations at positions 59 (S→T), 60 (R→K) and 94 (K→N), referred to herein as the S59T/R60K/K94N mutant, were introduced by site directed mutagenesis. Both the His-tagged and mutated TGFβ2 were expressed, refolded and purified using the same protocol as for wild type TGFβ2.
Dissociation constants for the binding of aptamers to purified human or rodent TGFβ-2 protein were determined by nitrocellulose-filter partitioning using ^32P-labeled RNA. […]
as §5

[8] = system: human TGFβ2; assay: MLEC proliferation assay (reversal of TGFβ2-mediated inhibition, BrdU); format: cell-based; conditions: FIG. 6B
Method: as §3, §4, §1

[9] = Aq Humour, subconjunctival, 1 mg/eye bilaterally
[10] = PLASMA, subconjunctival, 1 mg/eye bilaterally
[11] = after subconjunctival administration
[12] = 32P-labeled aptamer, nitrocellulose-filter partitioning, fit to Equation 1, read-out: Kd

Substance: 5′-NH2-mGmGmGmGfUfUAfUfUmAfCmAmGmAmGfUfCfUGfUAfUAmGfCfUmGfUmAfCfCfC-3T-3′ (GGGGUUAUUACAGAGUCUGUAUAGCUGUACCC; sugars from the 5' end mmmmffrffmfmmmmfffrfrfrmffmfmfff, 5' {NH2}, 3' {3T}, backbone not given here) [ARC81]
- AUC (0-t) [1, 9]: 36.0 nM·h
- Cmax [1, 9]: 5.19 nM
- MRT [1, 9]: 6.03* h
- TLAST [1, 9]: 12 h
- tmax [1, 9]: 6 h
- AUC (0-t) [1, 10]: 29.8 nM·h
- Cmax [1, 10]: 6.44 nM
- MRT [1, 10]: 3.13 h
- TLAST [1, 10]: 12 h
- Vd [1, 10]: 21079 mL
- t1/2 [1, 10]: 2.42 h
- tmax [1, 10]: 1 h
- detection in the aqueous humor [1, 11]: detected in the aqueous humor
- time to enter systemic circulation [1, 11]: less than 0.5 hour
- rescue of rabbit aqueous humor-mediated inhibition of MLEC proliferation ([2]; 1.5% rabbit aqueous humor): rescued rabbit aqueous humor-mediated inhibition of MLEC proliferation in a dose dependent manner
- inhibition of antiproliferative effects of rabbit aqueous humor ([2]; low concentrations of rabbit aqueous humor (e.g., <10%), 1000 nM ARC81): inhibited the antiproliferative effects of low concentrations of rabbit aqueous humor
- Kd [3, 12]: 5.1 nM
- inhibition of the antiproliferative effects of TGFβ2 [4]: inhibit the antiproliferative effects of 50 pg/ml of TGFβ2

Substance: 5′-[PEG40K]-NH2-dCdAdGfCmGfUdAfCmG-PEG-dCdGTdAdCdCmGdATfUfCmA-PEG-TdGdAdAdGfCfUmG-3T-3′ [ARC128, reference compound]
- blocking of RPE cell migration [5]: has no activity

Substance: 5′-GGAGGfUfUAfUfUAfCAGAGfUfCfUGfUAfUAGfCfUGfUAfCfUfCfC-3T-3′ (GGAGGUUAUUACAGAGUCUGUAUAGCUGUACUCC; 2'-fluoro at CU, RNA at AG, 3' {3T}, backbone not given here) [ARC77]
- Kd [6]: 80 ± 5 nM
- Kd [7]: ≥ 500 nM
- Kd [3, 12]: 3.6 nM
- Kd ([3]; FIG. 6C, read-out: binding affinity, human wild type (WT) TGFβ2): 2.5 ± 0.3 nM
- Kd ([3]; read-out: KD): 1 nM
- inhibition of the antiproliferative effects of TGFβ2 [4]: inhibit the antiproliferative effects of 50 pg/ml of TGFβ2
- IC50 ([4]; read-out: cell IC50): 10 nM
- potency against human versus rodent form of TGFβ2 [8]: more potent against the human form of TGFβ2 than the rodent version
